Test results reported in patent US20210255193A1, “LYSINE REACTIVE PROBES AND USES THEREOF” (The Scripps Research Institute, priority 2017, published 2021).

Columns and labels:
Experiment in all cases: competitive isoTOP-ABPP
Type in all cases: binding
HK1 Hexokinase-1 = target: T1, HK1 Hexokinase-1 (Homo sapiens, UniProt P19367); set-up: key to isoTOP-ABPP reactivity ratio at lysine P19367_K510: R = MS1 peak area ratio, DMSO (heavy) / compound-treated (light); conditions: for isoTOP-ABPP reactivity ratio at lysine P19367_K510 / isoTOP-ABPP ratio (R) at liganded lysine P19367_K510 / R value (DMSO/fragment) for probe 1 labeling: 50 uM, in vitro; for isoTOP-ABPP reactivity ratio at lysine P19367_K510 / R value (DMSO/fragment) for probe 1 labeling: 231 sol; for isoTOP-ABPP ratio (R) at liganded lysine P19367_K510: sol, 231; for R value (DMSO/fragment) for probe 1 labeling: P19367_K510
T1 construct: isoTOP-ABPP experiments performed in cell lysates (in vitro); endogenous in cells; host or cells: soluble proteome of human cancer cell lines (MDA-MB-231; Ramos and Jurkat also prepared)
T1 sequence (P19367 1-917): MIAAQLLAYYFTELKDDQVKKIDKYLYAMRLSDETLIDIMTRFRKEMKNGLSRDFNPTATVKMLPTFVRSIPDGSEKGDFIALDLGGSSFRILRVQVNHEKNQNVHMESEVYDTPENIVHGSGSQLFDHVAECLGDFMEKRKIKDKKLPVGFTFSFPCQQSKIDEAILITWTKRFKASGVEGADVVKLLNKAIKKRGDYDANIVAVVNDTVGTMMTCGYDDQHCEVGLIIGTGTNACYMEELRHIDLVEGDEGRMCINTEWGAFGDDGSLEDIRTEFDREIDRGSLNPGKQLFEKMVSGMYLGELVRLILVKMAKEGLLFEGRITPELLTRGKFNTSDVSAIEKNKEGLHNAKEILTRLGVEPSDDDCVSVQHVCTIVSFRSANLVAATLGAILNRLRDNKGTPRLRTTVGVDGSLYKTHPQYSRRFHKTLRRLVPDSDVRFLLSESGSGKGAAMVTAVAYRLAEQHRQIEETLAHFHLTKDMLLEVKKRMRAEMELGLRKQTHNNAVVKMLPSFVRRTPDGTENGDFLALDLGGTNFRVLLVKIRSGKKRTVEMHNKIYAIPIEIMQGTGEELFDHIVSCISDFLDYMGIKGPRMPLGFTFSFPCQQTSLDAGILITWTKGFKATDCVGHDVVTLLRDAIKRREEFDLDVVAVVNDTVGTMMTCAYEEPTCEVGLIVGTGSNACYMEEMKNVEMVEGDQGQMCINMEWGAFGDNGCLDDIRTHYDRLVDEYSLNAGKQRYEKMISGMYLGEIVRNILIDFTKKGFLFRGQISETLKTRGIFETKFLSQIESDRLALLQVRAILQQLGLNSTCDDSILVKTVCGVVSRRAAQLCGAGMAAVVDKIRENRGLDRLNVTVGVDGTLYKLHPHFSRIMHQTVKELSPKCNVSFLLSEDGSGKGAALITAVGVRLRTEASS
Procedure: (§1) In vitro covalent fragment treatment for isoTOP-ABPP. All compounds were made up as solutions in DMSO (100×) and were used at a final concentration of 50 μM for activated esters and 100 μM for guanidinylating agents. For each profiling sample, 0.5 ml of lysate was treated with 5 μl of the 100× compound stock solution or 5 μl of DMSO. Samples were treated with activated esters for
(§2) STP-alkyne labeling and click chemistry. For concentration-dependent reactivity measurements by isoTOP-ABPP, 0.5 ml proteome aliquots were treated at ambient temperature with 1 mM STP-alkyne 1 (5 μl of 100 mM stock in DMSO) and 0.1 mM STP alkyne 1 (5 μl of 10 mM stock in DMSO), respectively. For competitive isoTOP-ABPP, after in vitro fragment treatment (detailed above), the samples were labeled for 1 h at ambient temperature with 0.1 mM STP-alkyne 1 (5 μl of 10 mM stock in DMSO). Samples were conjugated by copper-mediated azide-alkyne cycloaddition (CuAAC) to either the light (1 mM STP-alkyne or fragment treated) or heavy (0.1 mM STP-alkyne or DMSO treated) TEV tags (10 μl of 5 mM stocks in DMSO, final concentration=100 μM) using tris(2-carboxyethyl)phosphine hydrochloride
(§3) R value calculation and processing. The ratios of light and heavy MS1 peaks for each unique peptide were quantified with a CIMAGE software using default parameters (3 MS1 acquisitions per peak and signal to noise threshold set to 2.5). For reactivity measurements by isoTOP-ABPP, the R value was calculated from the ratio of MS1 peak areas, comparing the 1 mM STP alkyne sample (light TEV tag) with the 0.1 mM STP alkyne sample (heavy TEV tag). For competitive isoTOP-ABPP, the R value was calculated from the ratio of MS1 peak areas, comparing the DMSO treated sample (heavy TEV tag) with the compound treated sample (light TEV tag). […] Ratios for unique peptide entries are calculated for each experiment; overlapping peptides with the same modified lysine (for example, different charge states, MudPIT chromatographic steps or tryptic termini) are grouped together and the median ratio is reported as the final ratio (R). The peptide ratios reported by CIMAGE were further filtered to ensure the removal or correction of low-quality ratios in each individual data set. The quality filters applied were the following: removal of half tryptic peptides; for ratios with high standard deviations from the median (90% of the median or above) the lowest ratio was taken instead of the median; removal of peptides with R=20 and only a single MS2 event triggered during the elution of the parent ion; manual annotation of all the peptides with ratios of 20, removing any peptides with low quality elution profiles that remained after the previous curation steps (only done for competitive isoTOP-ABPP).
(§4) Cross-data processing for fragment screening. For compound treated samples, biological replicates of the same condition were averaged, if the standard deviation was below 60% of the mean; otherwise, for lysines with at least one R value <4 for a particular compound, the lowest value of the ratio set was taken. For lysines, where all R values for a particular compound were ≥4, the average was reported. For peptides containing several possible modified lysines, the lysine with the highest number of quantification events was used for analysis and the remaining, redundant peptides were reported as alternative modification sites. Peptides included in the aggregate dataset (those used for further bioinformatics and statistical analyses) were required to have been quantified in 2 experiments for competitive isoTOP-ABPP. Lysines were categorized as liganded, if they had at least one ratio R≥4 (hit fragments). For liganded lysines with R=20 for all liganding events, lysines were required to have been quantified with R=20 in two separate experiments and were further required to have been quantified with R<20 in one additional experiment.

[1] = target: T2, TPD52L2 Tumor protein D54 (Homo sapiens, UniProt O43399); set-up: key to isoTOP-ABPP reactivity ratio at lysine O43399_K90: R = MS1 peak area ratio, DMSO (heavy) / compound-treated (light); conditions: for isoTOP-ABPP reactivity ratio at lysine O43399_K90 / isoTOP-ABPP ratio (R) at liganded lysine O43399_K90 / R value (DMSO/fragment) for probe 1 labeling: 50 uM, in vitro; for isoTOP-ABPP reactivity ratio at lysine O43399_K90 / R value (DMSO/fragment) for probe 1 labeling: 231 sol; for isoTOP-ABPP ratio (R) at liganded lysine O43399_K90: sol, 231; for R value (DMSO/fragment) for probe 1 labeling: O43399_K90
T2 construct: isoTOP-ABPP experiments performed in cell lysates (in vitro); endogenous in cells; host or cells: MDA-MB-231 soluble lysate
Procedure: as §1, §2, §3, §4

[2] = target: T3, TPMT Thiopurine S-methyltransferase (Homo sapiens, UniProt P51580); set-up: key to isoTOP-ABPP reactivity ratio at lysine P51580_K32: R = MS1 peak area ratio, DMSO (heavy) / compound-treated (light); conditions: for isoTOP-ABPP reactivity ratio at lysine P51580_K32 / isoTOP-ABPP ratio (R) at liganded lysine P51580_K32 / R value (DMSO/fragment) for probe 1 labeling: 50 uM, in vitro; for isoTOP-ABPP reactivity ratio at lysine P51580_K32 / R value (DMSO/fragment) for probe 1 labeling: 231 sol; for isoTOP-ABPP ratio (R) at liganded lysine P51580_K32: sol, 231; for R value (DMSO/fragment) for probe 1 labeling: P51580_K32
T3 construct: isoTOP-ABPP experiments performed in cell lysates (in vitro); endogenous in cells; host or cells: soluble proteome of human cancer cell lines (MDA-MB-231; Ramos and Jurkat also prepared)
T3 sequence (P51580 1-245): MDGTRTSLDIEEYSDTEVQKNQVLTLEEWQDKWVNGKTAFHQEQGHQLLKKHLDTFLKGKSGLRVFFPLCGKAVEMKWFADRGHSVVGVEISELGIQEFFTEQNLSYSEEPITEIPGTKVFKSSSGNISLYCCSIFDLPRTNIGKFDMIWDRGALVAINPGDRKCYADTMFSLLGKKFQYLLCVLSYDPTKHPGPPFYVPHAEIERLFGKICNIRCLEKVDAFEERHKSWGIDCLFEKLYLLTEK
Procedure: as §1, §2, §3, §4

T2 sequence (O43399 whole entry, the tested form may be a part): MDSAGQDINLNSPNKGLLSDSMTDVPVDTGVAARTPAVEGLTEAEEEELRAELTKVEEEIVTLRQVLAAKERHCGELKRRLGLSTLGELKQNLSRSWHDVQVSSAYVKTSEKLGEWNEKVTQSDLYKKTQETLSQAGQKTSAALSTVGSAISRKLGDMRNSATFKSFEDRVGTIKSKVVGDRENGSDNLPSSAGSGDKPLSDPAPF

O=C(Oc1ccc([N+](=O)[O-])cc1[N+](=O)[O-])C(c1ccccc1)c1ccccc1 [fragment 30, 2,4-Dinitrophenyl 2,2-diphenylacetate]
isoTOP-ABPP reactivity ratio at lysine P19367_K510 (HK1 Hexokinase-1): 1.0 | isoTOP-ABPP reactivity ratio at lysine O43399_K90 [1]: 5.5 | isoTOP-ABPP reactivity ratio at lysine P51580_K32 [2]: 1.5

O=C(Oc1ccc([N+](=O)[O-])cc1[N+](=O)[O-])c1cc(C(F)(F)F)cc(C(F)(F)F)c1 [fragment 31, 2,4-Dinitrophenyl 3,5-bis(trifluoromethyl)benzoate]
isoTOP-ABPP reactivity ratio at lysine P19367_K510 (HK1 Hexokinase-1): 1.1 | isoTOP-ABPP reactivity ratio at lysine O43399_K90 [1]: 3.3 | isoTOP-ABPP reactivity ratio at lysine P51580_K32 [2]: 2.5

O=C(CCc1cn(-c2ccccc2)nc1-c1ccccc1)Oc1ccc([N+](=O)[O-])cc1[N+](=O)[O-] [fragment 29, 2,4-Dinitrophenyl 3-(1,3-diphenyl-1H-pyrazol-4-yl)propanoate]
isoTOP-ABPP reactivity ratio at lysine P19367_K510 (HK1 Hexokinase-1): 10.8 | isoTOP-ABPP reactivity ratio at lysine O43399_K90 [1]: 3.1 | isoTOP-ABPP reactivity ratio at lysine P51580_K32 [2]: 1.4

CC(=O)Oc1ccc([N+](=O)[O-])cc1[N+](=O)[O-] [fragment 43, 2,4-Dinitrophenyl acetate]
isoTOP-ABPP ratio (R) at liganded lysine P19367_K510 (HK1 Hexokinase-1): 20.0 | isoTOP-ABPP ratio (R) at liganded lysine O43399_K90 [1]: 1.1 | isoTOP-ABPP ratio (R) at liganded lysine P51580_K32 [2]: 1.5

O=C(Oc1c(F)c(F)cc(F)c1F)c1cc(C(F)(F)F)cc(C(F)(F)F)c1 [fragment 48, 2,3,5,6-Tetrafluorophenyl 3,5-bis(trifluoromethyl)benzoate]
isoTOP-ABPP ratio, lysine P19367_K510 (HK1 Hexokinase-1; 50 uM_231_sol_in vitro): 0.8 | isoTOP-ABPP ratio, lysine O43399_K90 ([1]; 50 uM_231_sol_in vitro): 1.8 | isoTOP-ABPP ratio, lysine P51580_K32 ([2]; 50 uM_231_sol_in vitro): 4.4

CC(C)(C)OC(=O)N=C(NC(=O)OC(C)(C)C)n1cccn1 [fragment 50, reference compound]
isoTOP-ABPP ratio, lysine P19367_K510 (HK1 Hexokinase-1; 100 uM_231_sol_in vitro): 1.0 | isoTOP-ABPP ratio, lysine O43399_K90 ([1]; 100 uM_231_sol_in vitro): 2.2 | isoTOP-ABPP ratio, lysine P51580_K32 ([2]; 100 uM_231_sol_in vitro): 11.7

N#Cc1ccc(C(=O)Oc2ccc([N+](=O)[O-])cc2[N+](=O)[O-])cc1 [fragment 44, 2,4-Dinitrophenyl 4-cyanobenzoate]
isoTOP-ABPP ratio, lysine P19367_K510 (HK1 Hexokinase-1; 50 uM_231_sol_in vitro): 1.2 | isoTOP-ABPP ratio, lysine O43399_K90 ([1]; 50 uM_231_sol_in vitro): 1.1 | isoTOP-ABPP ratio, lysine P51580_K32 ([2]; 50 uM_231_sol_in vitro): 1.4

O=C(Oc1ccc([N+](=O)[O-])cc1[N+](=O)[O-])c1ccc(-c2ccccc2)cc1 [fragment 37, 2,4-Dinitrophenyl [1,1′-biphenyl]-4-carboxylate]
isoTOP-ABPP ratio (R) at liganded lysine P19367_K510 (HK1 Hexokinase-1): 0.9 | isoTOP-ABPP ratio (R) at liganded lysine O43399_K90 [1]: 1.6 | isoTOP-ABPP ratio (R) at liganded lysine P51580_K32 [2]: 1.5

O=C(CCc1ccc2c(c1)OCO2)Oc1ccc([N+](=O)[O-])cc1[N+](=O)[O-] [fragment 45, 2,4-Dinitrophenyl 3-(benzo[d][1,3]dioxol-5-yl)propanoate]
isoTOP-ABPP ratio, lysine P19367_K510 (HK1 Hexokinase-1; 50 uM_231_sol_in vitro): 5.3 | isoTOP-ABPP ratio, lysine O43399_K90 ([1]; 50 uM_231_sol_in vitro): 1.5 | isoTOP-ABPP ratio, lysine P51580_K32 ([2]; 50 uM_231_sol_in vitro): 2.3

O=C(Oc1c(F)c(F)c(F)c(F)c1F)C(c1ccccc1)c1ccccc1 [fragment 20, Pentafluorophenyl 2,2-diphenylacetate]
R value (DMSO/fragment) for probe 1 labeling (HK1 Hexokinase-1): 0.9 | R value (DMSO/fragment) for probe 1 labeling [1]: 1.5 | R value (DMSO/fragment) for probe 1 labeling [2]: 0.9

CCn1cc(C(=O)Oc2c(F)c(F)c(F)c(F)c2F)c(=O)c2ccc(C)nc21 [fragment 28, Pentafluorophenyl 1-ethyl-7-methyl-4-oxo-1,4-dihydro-1,8-naphthyridine-3-carboxylate]
isoTOP-ABPP reactivity ratio at lysine P19367_K510 (HK1 Hexokinase-1): 0.9 | isoTOP-ABPP reactivity ratio at lysine O43399_K90 [1]: 1.1 | isoTOP-ABPP reactivity ratio at lysine P51580_K32 [2]: 1.1

O=C(Oc1c(F)c(F)c(F)c(F)c1F)c1cc(C(F)(F)F)cc(C(F)(F)F)c1 [fragment 21, Pentafluorophenyl 3,5-bis(trifluoromethyl)benzoate]
R value (DMSO/fragment) for probe 1 labeling (HK1 Hexokinase-1): 1.0 | R value (DMSO/fragment) for probe 1 labeling [1]: 2.0 | R value (DMSO/fragment) for probe 1 labeling [2]: 4.9

CC(C)(C)OC(=O)NCCCC(=O)Oc1ccc([N+](=O)[O-])cc1[N+](=O)[O-] [fragment 41, 2,4-Dinitrophenyl 4-((tert-butoxycarbonyl)amino)butanoate]
isoTOP-ABPP ratio (R) at liganded lysine P19367_K510 (HK1 Hexokinase-1): 12.6 | isoTOP-ABPP ratio (R) at liganded lysine O43399_K90 [1]: 1.3 | isoTOP-ABPP ratio (R) at liganded lysine P51580_K32 [2]: 1.5
